How the values were obtained:
Assay type in all cases: cell-based
Gram-negative bacilli = assay: Experiment Example 5: influence of composition pH (10.0% maltose), specimen culture, Gram smear; conditions: 1.0% yeast extract, 1.6% xanthan gum
Excerpt: (§1) • (1)The preparation of the compositions: Maltose was used to prepare the following compositions according to the method mentioned above: • A. 10.0% maltose, 1.0% yeast extract, 1.6% xanthan gum, pH adjusted to 4.4; • B. 10.0% maltose, 1.0% yeast extract, 1.6% xanthan gum, pH adjusted to 4.8; • C. 10.0% maltose, 1.0% yeast extract, 1.6% xanthan gum, pH adjusted to 5.1; • D. 10.0% maltose, 1.0% yeast extract, 1.6% xanthan gum, pH adjusted to 5.4; • E. 10.0% maltose, 1.0% yeast extract, 1.6% xanthan gum, pH adjusted to 5.8; • F. 10.0% maltose, 1.0% yeast extract, 1.6% xanthan gum, pH adjusted to 6.4; • G. 10.0% maltose, 1.0% yeast extract, 1.6% xanthan gum, pH adjusted to 6.8; • H. 10.0% maltose, 1.0% yeast extract, 1.6% xanthan gum, pH adjusted to 7.2; • (2)The preparation of the test tubes: Compositions prepared above were filled into the test tubes, with each tube containing 5 ml, sterilized, and kept until use for experiments. • (3)Specimen suspension: Vaginal secretion was taken from one of the patients suffering from typical bacterial vaginosis with a cotton swab, then the swab was washed in 2 ml sterilized Trypcase-soy Broth immediately, and thus the specimen suspension was ready. […] Then the tubes were placed in a candle jar and cultivated at 37° C. After 24 hours and 48 hours' culture, culture samples were taken respectively from each of the tubes, then the Gram smears of the samples were observed and the pH values of culture samples were tested.

Gram-negative cocci = assay: as above; conditions: 1.0% yeast extract, 1.6% xanthan gum
Excerpt: as §1

Gram-positive bacilli = assay: as above; conditions: 1.0% yeast extract, 1.6% xanthan gum
Excerpt: as §1

Gram-positive cocci = assay: as above; conditions: 1.0% yeast extract, 1.6% xanthan gum
Excerpt: as §1

[1] = test system: vaginal secretion specimen of a patient suffering from typical bacterial vaginosis; assay: Experiment Example 5: pH of culture samples (production of acids); conditions: 10.0% maltose, 1.0% yeast extract, 1.6% xanthan gum
Excerpt: as §1

[2] = pH of the composition 4.4, 24 hours
[3] = pH of the composition 4.4, 48 hours
[4] = pH of the composition 4.8, 24 hours
[5] = pH of the composition 4.8, 48 hours
[6] = pH of the composition 5.1, 24 hours
[7] = pH of the composition 5.1, 48 hours
[8] = pH of the composition 5.4, 24 hours
[9] = pH of the composition 5.4, 48 hours
[10] = pH of the composition 5.8, 24 hours
[11] = pH of the composition 5.8, 48 hours
[12] = pH of the composition 6.4, 24 hours
[13] = pH of the composition 6.4, 48 hours
[14] = pH of the composition 6.8, 24 hours
[15] = pH of the composition 6.8, 48 hours
[16] = pH of the composition 7.2, 24 hours
[17] = pH of the composition 7.2, 48 hours

Compound: OC[C@H]1O[C@H](O[C@H]2[C@H](O)[C@@H](O)[C@H](O)O[C@@H]2CO)[C@H](O)[C@@H](O)[C@@H]1O [Maltose, maltose]
- Bacteria G − b (Gram-negative bacilli), 24 hours culture (Gram-negative bacilli; [2]): G − b, ++ (About 10-99 bacteria per field of vision under oil-immersion lens)
- Bacteria G − b (Gram-negative bacilli), 48 hours culture (Gram-negative bacilli; [3]): G − b, ++ (About 10-99 bacteria per field of vision under oil-immersion lens)
- Bacteria G − b (Gram-negative bacilli), 24 hours culture (Gram-negative bacilli; [4]): G − b, ++ (About 10-99 bacteria per field of vision under oil-immersion lens)
- Bacteria G − b (Gram-negative bacilli), 48 hours culture (Gram-negative bacilli; [5]): G − b, ++ (About 10-99 bacteria per field of vision under oil-immersion lens)
- Bacteria G − b (Gram-negative bacilli), 24 hours culture (Gram-negative bacilli; [6]): G − b, ++ (About 10-99 bacteria per field of vision under oil-immersion lens)
- Bacteria G − b (Gram-negative bacilli), 48 hours culture (Gram-negative bacilli; [7]): G − b, ++ (About 10-99 bacteria per field of vision under oil-immersion lens)
- Bacteria G − b (Gram-negative bacilli), 24 hours culture (Gram-negative bacilli; [8]): G − b, + (1-9 bacteria per field of vision under oil-immersion lens)
- Bacteria G − b (Gram-negative bacilli), 48 hours culture (Gram-negative bacilli; [9]): G − b, ++ (About 10-99 bacteria per field of vision under oil-immersion lens)
- Bacteria G − b (Gram-negative bacilli), 24 hours culture (Gram-negative bacilli; [10]): G − b, ++ (About 10-99 bacteria per field of vision under oil-immersion lens)
- Bacteria G − b (Gram-negative bacilli), 48 hours culture (Gram-negative bacilli; [11]): G − b, ++ (About 10-99 bacteria per field of vision under oil-immersion lens)
- Bacteria G − b (Gram-negative bacilli), 24 hours culture (Gram-negative bacilli; [12]): G − b, ++ (About 10-99 bacteria per field of vision under oil-immersion lens)
- Bacteria G − b (Gram-negative bacilli), 48 hours culture (Gram-negative bacilli; [13]): G − b, ++ (About 10-99 bacteria per field of vision under oil-immersion lens)
- Bacteria G − b (Gram-negative bacilli), 24 hours culture (Gram-negative bacilli; [14]): G − b, ++ (About 10-99 bacteria per field of vision under oil-immersion lens)
- Bacteria G − b (Gram-negative bacilli), 48 hours culture (Gram-negative bacilli; [15]): G − b, ++ (About 10-99 bacteria per field of vision under oil-immersion lens)
- Bacteria G − b (Gram-negative bacilli), 24 hours culture (Gram-negative bacilli; [16]): G − b, + (1-9 bacteria per field of vision under oil-immersion lens)
- Bacteria G − b (Gram-negative bacilli), 48 hours culture (Gram-negative bacilli; [17]): G − b, ++ (About 10-99 bacteria per field of vision under oil-immersion lens)
- Bacteria G − c (Gram-negative cocci), 24 hours culture (Gram-negative cocci; [2]): G − c, − (No or less than one bacterium per field of version under oil-immersion lens)
- Bacteria G − c (Gram-negative cocci), 48 hours culture (Gram-negative cocci; [3]): G − c, − (No or less than one bacterium per field of version under oil-immersion lens)
- Bacteria G − c (Gram-negative cocci), 24 hours culture (Gram-negative cocci; [4]): G − c, − (No or less than one bacterium per field of version under oil-immersion lens)
- Bacteria G − c (Gram-negative cocci), 48 hours culture (Gram-negative cocci; [5]): G − c, − (No or less than one bacterium per field of version under oil-immersion lens)
- Bacteria G − c (Gram-negative cocci), 24 hours culture (Gram-negative cocci; [6]): G − c, − (No or less than one bacterium per field of version under oil-immersion lens)
- Bacteria G − c (Gram-negative cocci), 48 hours culture (Gram-negative cocci; [7]): G − c, − (No or less than one bacterium per field of version under oil-immersion lens)
- Bacteria G − c (Gram-negative cocci), 24 hours culture (Gram-negative cocci; [8]): G − c, − (No or less than one bacterium per field of version under oil-immersion lens)
- Bacteria G − c (Gram-negative cocci), 48 hours culture (Gram-negative cocci; [9]): G − c, − (No or less than one bacterium per field of version under oil-immersion lens)
- Bacteria G − c (Gram-negative cocci), 24 hours culture (Gram-negative cocci; [10]): G − c, − (No or less than one bacterium per field of version under oil-immersion lens)
- Bacteria G − c (Gram-negative cocci), 48 hours culture (Gram-negative cocci; [11]): G − c, − (No or less than one bacterium per field of version under oil-immersion lens)
- Bacteria G − c (Gram-negative cocci), 24 hours culture (Gram-negative cocci; [12]): G − c, − (No or less than one bacterium per field of version under oil-immersion lens)
- Bacteria G − c (Gram-negative cocci), 48 hours culture (Gram-negative cocci; [13]): G − c, − (No or less than one bacterium per field of version under oil-immersion lens)
- Bacteria G − c (Gram-negative cocci), 24 hours culture (Gram-negative cocci; [14]): G − c, − (No or less than one bacterium per field of version under oil-immersion lens)
- Bacteria G − c (Gram-negative cocci), 48 hours culture (Gram-negative cocci; [15]): G − c, − (No or less than one bacterium per field of version under oil-immersion lens)
- Bacteria G − c (Gram-negative cocci), 24 hours culture (Gram-negative cocci; [16]): G − c, − (No or less than one bacterium per field of version under oil-immersion lens)
- Bacteria G − c (Gram-negative cocci), 48 hours culture (Gram-negative cocci; [17]): G − c, − (No or less than one bacterium per field of version under oil-immersion lens)
- Bacteria G + b (Gram-positive bacilli), 24 hours culture (Gram-positive bacilli; [2]): G + b, −˜+
- Bacteria G + b (Gram-positive bacilli), 48 hours culture (Gram-positive bacilli; [3]): G + b, −˜+
- Bacteria G + b (Gram-positive bacilli), 24 hours culture (Gram-positive bacilli; [4]): G + b, + (1-9 bacteria per field of vision under oil-immersion lens)
- Bacteria G + b (Gram-positive bacilli), 48 hours culture (Gram-positive bacilli; [5]): G + b, + (1-9 bacteria per field of vision under oil-immersion lens)
- Bacteria G + b (Gram-positive bacilli), 24 hours culture (Gram-positive bacilli; [6]): G + b, + (1-9 bacteria per field of vision under oil-immersion lens)
- Bacteria G + b (Gram-positive bacilli), 24 hours culture (Gram-positive bacilli; [8]): G + b, +++ (About 100 bacteria or more per field vision under oil-immersion lens, even uncountable)
- Bacteria G + b (Gram-positive bacilli), 24 hours culture (Gram-positive bacilli; [10]): G + b, ++ (About 10-99 bacteria per field of vision under oil-immersion lens)
- Bacteria G + b (Gram-positive bacilli), 48 hours culture (Gram-positive bacilli; [11]): G + b, +++ (About 100 bacteria or more per field vision under oil-immersion lens, even uncountable)
- Bacteria G + b (Gram-positive bacilli), 24 hours culture (Gram-positive bacilli; [12]): G + b, + (1-9 bacteria per field of vision under oil-immersion lens)
- Bacteria G + b (Gram-positive bacilli), 48 hours culture (Gram-positive bacilli; [13]): G + b, +++ (About 100 bacteria or more per field vision under oil-immersion lens, even uncountable)
- Bacteria G + b (Gram-positive bacilli), 24 hours culture (Gram-positive bacilli; [14]): G + b, ++ (About 10-99 bacteria per field of vision under oil-immersion lens)
- Bacteria G + b (Gram-positive bacilli), 48 hours culture (Gram-positive bacilli; [15]): G + b, +++ (About 100 bacteria or more per field vision under oil-immersion lens, even uncountable)
- Bacteria G + b (Gram-positive bacilli), 24 hours culture (Gram-positive bacilli; [16]): G + b, ++ (About 10-99 bacteria per field of vision under oil-immersion lens)
- Bacteria G + b (Gram-positive bacilli), 48 hours culture (Gram-positive bacilli; [17]): G + b, +++ (About 100 bacteria or more per field vision under oil-immersion lens, even uncountable)
- Bacteria G + c (Gram-positive cocci), 24 hours culture (Gram-positive cocci; [2]): G + c, − (No or less than one bacterium per field of version under oil-immersion lens)
- Bacteria G + c (Gram-positive cocci), 48 hours culture (Gram-positive cocci; [3]): G + c, − (No or less than one bacterium per field of version under oil-immersion lens)
- Bacteria G + c (Gram-positive cocci), 24 hours culture (Gram-positive cocci; [4]): G + c, + (1-9 bacteria per field of vision under oil-immersion lens)
- Bacteria G + c (Gram-positive cocci), 48 hours culture (Gram-positive cocci; [5]): G + c, + (1-9 bacteria per field of vision under oil-immersion lens)
- Bacteria G + c (Gram-positive cocci), 24 hours culture (Gram-positive cocci; [6]): G + c, + (1-9 bacteria per field of vision under oil-immersion lens)
- Bacteria G + c (Gram-positive cocci), 48 hours culture (Gram-positive cocci; [7]): G + c, ++ (About 10-99 bacteria per field of vision under oil-immersion lens)
- Bacteria G + c (Gram-positive cocci), 24 hours culture (Gram-positive cocci; [8]): G + c, + (1-9 bacteria per field of vision under oil-immersion lens)
- Bacteria G + c (Gram-positive cocci), 48 hours culture (Gram-positive cocci; [9]): G + c, − (No or less than one bacterium per field of version under oil-immersion lens)
- Bacteria G + c (Gram-positive cocci), 24 hours culture (Gram-positive cocci; [10]): G + c, + (1-9 bacteria per field of vision under oil-immersion lens)
- Bacteria G + c (Gram-positive cocci), 48 hours culture (Gram-positive cocci; [11]): G + c, + (1-9 bacteria per field of vision under oil-immersion lens)
- Bacteria G + c (Gram-positive cocci), 24 hours culture (Gram-positive cocci; [12]): G + c, + (1-9 bacteria per field of vision under oil-immersion lens)
- Bacteria G + c (Gram-positive cocci), 48 hours culture (Gram-positive cocci; [13]): G + c, + (1-9 bacteria per field of vision under oil-immersion lens)
- Bacteria G + c (Gram-positive cocci), 24 hours culture (Gram-positive cocci; [14]): G + c, − (No or less than one bacterium per field of version under oil-immersion lens)
- Bacteria G + c (Gram-positive cocci), 48 hours culture (Gram-positive cocci; [15]): G + c, + (1-9 bacteria per field of vision under oil-immersion lens)
- Bacteria G + c (Gram-positive cocci), 24 hours culture (Gram-positive cocci; [16]): G + c, − (No or less than one bacterium per field of version under oil-immersion lens)
- Bacteria G + c (Gram-positive cocci), 48 hours culture (Gram-positive cocci; [17]): G + c, − (No or less than one bacterium per field of version under oil-immersion lens)
- pH, 24 hours culture ([1]; pH of the composition 4.4): 4.4
- pH, 48 hours culture ([1]; pH of the composition 4.4): 4.4
- pH, 24 hours culture ([1]; pH of the composition 4.8): 4.8
- pH, 48 hours culture ([1]; pH of the composition 4.8): 4.4-4.8
- pH, 24 hours culture ([1]; pH of the composition 5.1): 4.6
- pH, 48 hours culture ([1]; pH of the composition 5.1): 4.4-4.6
- pH, 24 hours culture ([1]; pH of the composition 5.4): 5.4
- pH, 48 hours culture ([1]; pH of the composition 5.4): 4.1-4.4
- pH, 24 hours culture ([1]; pH of the composition 5.8): 4.8
- pH, 48 hours culture ([1]; pH of the composition 5.8): 4.1
- pH, 24 hours culture ([1]; pH of the composition 6.4): 4.4
- pH, 48 hours culture ([1]; pH of the composition 6.4): 4.1
- pH, 24 hours culture ([1]; pH of the composition 6.8): 5.4
- pH, 48 hours culture ([1]; pH of the composition 6.8): 4.4
- pH, 24 hours culture ([1]; pH of the composition 7.2): 5.4
- pH, 48 hours culture ([1]; pH of the composition 7.2): 4.1
